Results published in patent US20240018157A1, “CYCLIC COMPOUNDS AND METHODS OF USING SAME” (Schrödinger, Inc., priority 2019, published 2024).

The compounds below were run against full-length MALT1 protein His-MALT1(1-824) (Homo sapiens (Human), UniProt Q9UDY8) (assay: MALT1 protease assay, Assay 2 (1 nM MALT1, Ac-LRSR-AMC substrate)). Conditions: 1 nM MALT1, 50 μM Ac-LRSR-AMC, 2 h pre-incubation, 8 hr incubation at RT.
Assay type: biochemical
Protocol: MALT1 protease activity was assessed in an in vitro assay using a tetrapeptide as substrate and full-length MALT1 protein His-MALT1(1-824) purified from baculovirus-infected insect cells.
The final assay buffer includes 1 nM (Assay 2) or 2 nM (Assay 1) of MALT1 full-length protein, 50 μM Ac-LRSR-AMC substrate, 50 mM Tris pH 7.5, 600 mM Sodium Citrate, 1 mM DTT, 1 mM EDTA, and 0.05% BSA in 384-well plate format using black microtiter square well plates (Optiplate 384-F, Perkin Elmer).
Test compounds were dissolved in 100% DMSO at stock of 10 mM, with final DMSO concentration 0.1%. Test compounds were pre-incubated with MALT1 protein for 2 h at room temperature. Substrate was added after the pre-incubation and fluorescence signal was measured using Envision at excitation 355 nm and emission 460 nm after 8 hr incubation at RT.
The fluorescence units were transformed to percentage of remaining activity by using the high control (HC, median of fluorescence signal from wells containing MALT1 protein, substrate, and DMSO) and low control (LC, median of fluorescence signal from wells with substrate only) with the formula below: […]
IC50 and Hill coefficient were obtained using Graph Pad Prism (Graph Pad software, Inc, USA) with non-linear regression analysis.

Sequence of full-length MALT1 protein His-MALT1(1-824) (Q9UDY8 whole entry): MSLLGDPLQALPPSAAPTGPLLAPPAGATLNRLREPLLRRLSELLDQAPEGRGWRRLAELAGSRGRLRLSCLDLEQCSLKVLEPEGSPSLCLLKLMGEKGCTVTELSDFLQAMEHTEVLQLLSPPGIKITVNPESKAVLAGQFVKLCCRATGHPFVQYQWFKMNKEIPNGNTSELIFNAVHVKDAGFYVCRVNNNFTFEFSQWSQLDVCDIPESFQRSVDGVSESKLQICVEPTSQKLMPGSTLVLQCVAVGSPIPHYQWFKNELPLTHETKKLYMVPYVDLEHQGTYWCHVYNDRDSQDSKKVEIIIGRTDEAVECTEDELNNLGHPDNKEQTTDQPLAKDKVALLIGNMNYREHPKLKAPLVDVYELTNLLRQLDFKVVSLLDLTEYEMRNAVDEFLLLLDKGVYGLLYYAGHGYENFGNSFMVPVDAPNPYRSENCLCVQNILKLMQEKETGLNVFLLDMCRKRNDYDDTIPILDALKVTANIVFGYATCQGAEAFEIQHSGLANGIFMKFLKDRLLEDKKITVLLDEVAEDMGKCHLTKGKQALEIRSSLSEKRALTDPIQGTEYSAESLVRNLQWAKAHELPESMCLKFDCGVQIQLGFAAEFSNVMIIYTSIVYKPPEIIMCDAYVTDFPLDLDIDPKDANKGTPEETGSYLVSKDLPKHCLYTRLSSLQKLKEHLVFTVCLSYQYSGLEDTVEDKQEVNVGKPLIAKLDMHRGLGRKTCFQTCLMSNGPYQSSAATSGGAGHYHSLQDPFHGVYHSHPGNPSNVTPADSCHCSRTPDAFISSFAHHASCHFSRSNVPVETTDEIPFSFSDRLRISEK

| SMILES | IC50 |
| --- | --- |
| C[C@@]1(C(F)(F)F)CN(C(=O)Nc2cc(NC3COC3)nc(C(F)(F)F)c2)c2cnc3cc(Cl)nn3c21 [compound 99, (R)-2-chloro-8-methyl-N-(2-(oxetan-3-ylamino)-6-(trifluoromethyl)pyridin-4-yl)-8-(trifluoromethyl)-7,8-dihydro-6H-pyrazolo[1,5-a]pyrrolo[2,3-e]pyrimidine-6-carboxamide] | 100 to 1000 nM |
| C[C@@]1(C(F)(F)F)CN(C(=O)NC2CCC3(CC2)CC3)c2cnc3cc(Cl)nn3c21 [compound 172, (R)-2-chloro-8-methyl-N-(spiro[2.5]octan-6-yl)-8-(trifluoromethyl)-7,8-dihydro-6H-pyrazolo[1,5-a]pyrrolo[2,3-e]pyrimidine-6-carboxamide] | 100 to 1000 nM |
| CNc1cc(NC(=O)N2C[C@@](C)(C(F)(F)F)c3c2cnc2cc(Cl)nn32)cnc1-n1nccn1 [compound 132, (R)-2-chloro-8-methyl-N-(5-(methylamino)-6-(2H-1,2,3-triazol-2-yl)pyridin-3-yl)-8-(trifluoromethyl)-7,8-dihydro-6H-pyrazolo[1,5-a]pyrrolo[2,3-e]pyrimidine-6-carboxamide] | 100 to 1000 nM |
| CC1(C)CN=C(c2ncc(NC(=O)N3C[C@@](C)(C(F)(F)F)c4c3cnc3cc(Cl)nn43)cc2Cl)O1 [compound 118] | 10 to 100 nM |

Each compound was assayed on IL10 secretion, OCI-LY10 cells (assay: Human IL10 secretion assay, Assay 1 (HTRF)). Conditions: 24 h incubation, read-out: IL-10 Secretion IC50 [nM] Assay 1.
Assay type: cell-based
Protocol: IL10 is one of the cytokines that are regulated via activation of NF-kB signaling. For example, in ABC-DLBCL cell lines, the activated NF-kB signaling leads to increased IL10 secretion. Inhibition of NF-kB signaling has been shown leading to decreased IL10 secretion.
Assay 1: OCI-LY10 cells were seeded in IMEM supplemented with 20% fetal bovine serum at 3×10^5 cells per well in 96-well round bottom plates (Corning 3799, Corning), treated with 100 nL of 3-fold serial compound dilutions, starting at 10 mM. The final vehicle concentration was 0.1% DMSO in all wells. After 24 h incubation, the cells were transferred to 96-PCR plates (Axygen: PCR-96-FLT-C) and centrifuged, then 16 μL of cell culture media was transferred to HTRF plates and IL10 levels were measured using human IL-10 Assay Kits (Cisbio) using HTRF format. The signals were transformed to percentage of remaining activity by using the high control (HC, median of signal from wells containing cells treated with DMSO) and low control (LC, median of signal from wells with no cells). IC50 values (nM) were determined using 4-parametric curve-fitting and Hill coefficient were obtained using Graph Pad Prism (Graph Pad software, Inc, USA) with non-linear regression analysis.

| SMILES | IC50 |
| --- | --- |
| C[C@@]1(C(F)(F)F)CN(C(=O)Nc2ccnc(C(F)(F)F)c2)c2cnc3cc(Cl)nn3c21 [compound 27, (R)-2-chloro-8-methyl-8-(trifluoromethyl)-N-(2-(trifluoromethyl)pyridin-4-yl)-7,8-dihydro-6H-pyrazolo[1,5-a]pyrrolo[2,3-e]pyrimidine-6-carboxamide] | 10 to 100 nM |
| C[C@@]1(C(F)(F)F)CN(C(=O)Nc2ccnc(C(F)F)c2)c2cnc3cc(Cl)nn3c21 [compound 60, (R)-2-chloro-N-(2-(difluoromethyl)pyridin-4-yl)-8-methyl-8-(trifluoromethyl)-7,8-dihydro-6H-pyrazolo[1,5-a]pyrrolo[2,3-e]pyrimidine-6-carboxamide] | 10 to 100 nM |
| COc1c(Cl)cc(NC(=O)N2C[C@@](C)(C(F)(F)F)c3c2cnc2cc(Cl)nn32)nc1O[C@H]1CCNC1 [compound 63, (R)-2-chloro-N-(4-chloro-5-methoxy-6-(((S)-pyrrolidin-3-yl)oxy)pyridin-2-yl)-8-methyl-8-(trifluoromethyl)-7,8-dihydro-6H-pyrazolo[1,5-a]pyrrolo[2,3-e]pyrimidine-6-carboxamide] | 10 to 100 nM |
| C[C@@]1(C(F)(F)F)CN(C(=O)Nc2cnc(-n3nccn3)c(C#N)c2)c2cnc3cc(Cl)nn3c21 [compound 41, (R)-2-chloro-N-(5-cyano-6-(2H-1,2,3-triazol-2-yl)pyridin-3-yl)-8-methyl-8-(trifluoromethyl)-7,8-dihydro-6H-pyrazolo[1,5-a]pyrrolo[2,3-e]pyrimidine-6-carboxamide] | 10 to 100 nM |
| COc1ccc(NC(=O)N2C[C@@](C)(C(F)(F)F)c3c2cnc2cc(Cl)nn32)cc1Cl [compound 19, (R)-2-chloro-N-(3-chloro-4-methoxyphenyl)-8-methyl-8-(trifluoromethyl)-7,8-dihydro-6H-pyrazolo[1,5-a]pyrrolo[2,3-e]pyrimidine-6-carboxamide] | 100 to 1000 nM |
| CC1(C)CCN(C(=O)Nc2cnc(-n3nccn3)c(Cl)c2)c2cnc3cc(Cl)nn3c21 [compound 7, 2-chloro-N-(5-chloro-6-(2H-1,2,3-triazol-2-yl)pyridin-3-yl)-9,9-dimethyl-8,9-dihydropyrazolo[1,5-a]pyrido[2,3-e]pyrimidine-6(7H)-carboxamide] | 10 to 100 nM |
| Cc1cc(NC(=O)N2C[C@@](C)(C(F)(F)F)c3c2cnc2cc(Cl)nn32)cnc1-n1nccn1 [compound 21, (R)-2-chloro-8-methyl-N-(5-methyl-6-(2H-1,2,3-triazol-2-yl)pyridin-3-yl)-8-(trifluoromethyl)-7,8-dihydro-6H-pyrazolo[1,5-a]pyrrolo[2,3-e]pyrimidine-6-carboxamide] | 10 to 100 nM |
| COCc1cnn(-c2ncc(NC(=O)N3C[C@@](C)(C(F)(F)F)c4c3cnc3cc(Cl)nn43)cc2Cl)n1 [compound 79, (R)-2-chloro-N-(5-chloro-6-(4-(methoxymethyl)-2H-1,2,3-triazol-2-yl)pyridin-3-yl)-8-methyl-8-(trifluoromethyl)-7,8-dihydro-6H-pyrazolo[1,5-a]pyrrolo[2,3-e]pyrimidine-6-carboxamide] | 10 to 100 nM |
| Cc1cc2ncc3c(n2n1)C(C(F)(F)F)CCN3C(=O)Nc1cnc(-n2nccn2)c(Cl)c1 (stereo not drawn) [compound 10, N-(5-chloro-6-(2H-1,2,3-triazol-2-yl)pyridin-3-yl)-2-methyl-9-(trifluoromethyl)-8,9-dihydropyrazolo[1,5-a]pyrido[2,3-e]pyrimidine-6(7H)-carboxamide] | 100 to 1000 nM |
| C[C@@]1(C(F)(F)F)CN(C(=O)Nc2cc(N=S(C)(C)=O)nc(C(F)(F)F)c2)c2cnc3cc(Cl)nn3c21 [compound 83] | 100 to 1000 nM |
| C[C@@]1(C(F)(F)F)CN(C(=O)Nc2cnc(-n3ccnn3)c(C(F)(F)F)c2)c2cnc3cc(Cl)nn3c21 [compound 44, (R)-N-(6-(1H-1,2,3-triazol-1-yl)-5-(trifluoromethyl)pyridin-3-yl)-2-chloro-8-methyl-8-(trifluoromethyl)-7,8-dihydro-6H-pyrazolo[1,5-a]pyrrolo[2,3-e]pyrimidine-6-carboxamide] | 10 to 100 nM |
| COc1cnc(C(F)(F)F)cc1NC(=O)N1C[C@@](C)(C(F)(F)F)c2c1cnc1cc(Cl)nn21 [compound 66, (R)-2-chloro-N-(5-methoxy-2-(trifluoromethyl)pyridin-4-yl)-8-methyl-8-(trifluoromethyl)-7,8-dihydro-6H-pyrazolo[1,5-a]pyrrolo[2,3-e]pyrimidine-6-carboxamide] | 100 to 1000 nM |
| C[C@@]1(C(F)(F)F)CN(C(=O)Nc2cnc(-n3cc(O)cn3)c(Cl)c2)c2cnc3cc(Cl)nn3c21 [compound 48] | 10 to 100 nM |
| COc1ncc(NC(=O)N2C[C@@](C)(C(F)(F)F)c3c2cnc2cc(Cl)nn32)cc1Cl [compound 18, (R)-2-chloro-N-(5-chloro-6-methoxypyridin-3-yl)-8-methyl-8-(trifluoromethyl)-7,8-dihydro-6H-pyrazolo[1,5-a]pyrrolo[2,3-e]pyrimidine-6-carboxamide] | 10 to 100 nM |
| C[C@@]1(C(F)(F)F)CN(C(=O)Nc2cnc(-n3ccnn3)c(C(F)F)c2)c2cnc3cc(Cl)nn3c21 [compound 36, (R)-2-chloro-N-(5-(difluoromethyl)-6-(1H-1,2,3-triazol-1-yl)pyridin-3-yl)-8-methyl-8-(trifluoromethyl)-7,8-dihydro-6H-pyrazolo[1,5-a]pyrrolo[2,3-e]pyrimidine-6-carboxamide] | 10 to 100 nM |
| C[C@@]1(C(F)(F)F)CN(C(=O)Nc2cnc(-n3cc(CO)cn3)c(Cl)c2)c2cnc3cc(Cl)nn3c21 [compound 57, (R)-2-chloro-N-(5-chloro-6-(4-(hydroxymethyl)-1H-pyrazol-1-yl)pyridin-3-yl)-8-methyl-8-(trifluoromethyl)-7,8-dihydro-6H-pyrazolo[1,5-a]pyrrolo[2,3-e]pyrimidine-6-carboxamide] | 10 to 100 nM |
| C[C@@]1(C(F)(F)F)CN(C(=O)Nc2cnc(N=S(C)(C)=O)c(Cl)c2)c2cnc3cc(Cl)nn3c21 [compound 85] | 100 to 1000 nM |
